Source: US10875891B2, “Short synthetic peptide and uses thereof” (MacKay Memorial Hospital, priority 2018, dated 2020)
“Also recorded” adds a separate entry of the source. Where no end group is shown, it is not given here. [ ]: non-standard residue; d: D form.

What was measured:
[1] = test system: Murine psoriasis vulgaris-like skin inflammation model; test: IMQ-induced psoriasis vulgaris-like skin inflammation model, keratinocyte proliferation by BrdU incorporation; type: in vivo, BALB/c mice; conditions: 25 μM with IMQ cream, day 6; IMQ control 24.5±2.0; FIG. 9 panel B
Protocol: (§1) BALB/c mice (8-weeks old females; n=42) were used in this model system. […] Accordingly, in this model, each BALB/c mice received a daily topical dose (62.5 mg) of commercially available IMQ cream (Imiquimod Cream 5% w/w, Aldara™) on the shaved back and the right ear for 6 consecutive days (n=6); whereas the control mice (normal group) were treated with a control cream (n=6). For treatment, each test peptide was mixed with IMQ cream to give a concentration of 25 μM (n=6 per group). Keratinocyte proliferation was determined by BrdU incorporation. BrdU (Sigma-Aldrich) was reconstituted in DMSO as a stock solution of 80 mM. 10 μl of BrdU mixed with 90 μl of PBS was intraperitoneally injected into each mouse for 24 hr prior to euthanasia.
(§2) Slides were blocked with 10% goat serum for 60 min and then incubated with primary antibody against BrdU (1:50 dilution; GTX42641) for 3 hr at RT. The slides were then incubated with peroxidase-labeled donkey immunoglobulin for 30 min and then incubated with chromogen substrate (3,3′-diaminobenzidine) for 2 min before counterstaining with hematoxylin. Quantification was estimated based on high quality images (1208×960 pixels buffer) captured using a Nikon Eclipse 80i light microscope.

myeloma RPMI 8226 cell = test: MTT assay, cell viability; type: cell-based, human; conditions: 20 μM peptide, 24 h, serum-free RPMI1640; FIGS. 1-2
Protocol: The multiple myeloma line RPMI8226 or […] Raw264.7 macrophages were cultivated in complex medium (RPMI1640) supplemented with 10% (vol/vol) heat-inactivated fetal calf serum (Invitrogen), 50 μg/mL penicillin, 50 μg/mL streptomycin, and 2 mM L-glutamine at 37° C. in a 5% CO2 atmosphere
RPMI8226 cells or U266 cells were cultured in serum-free RPMI1640 medium for 24 h, and then cells seeded in 48-well culture plates (3×10^5 cells/well) and cultured in 0.5 ml fresh serum-free RPMI1640 medium containing 20 μM peptide for further 24 h. The cell viability was determined by the MTT assay.
50 μL of the MTT stock solution (5 mg MTT dissolved in 1 ml of sterile PBS) was added to each well, and 50 μL of the MTT stock solution was added to 500 μL of medium alone and used as a negative control. Each sample was Incubates at 37° C. for 4 hours. Aliquots (450 μl) from each sample were taken to a new well of 48-well culture plate, adding 100 μL DMSO, mixing thoroughly using the pipette and reacted at 37° C. for 20 min and absorbance was measured at 570 nm.

Murine dry eye model [2] = test: Dry eye animal model, fluorescein eye stain test for corneal injuries; type: in vivo, C57BL/6 mice; conditions: peptide 50 μM topically three times a day for 4 days; for reduction in mean corneal fluorescein staining score compared with vehicle treated control mice: FIG. 3 panel B
Protocol: (§3) C57BL/6 mice (7-8 weeks old, each weighted about 18 to 25 g) were used in this model system. All mice were maintained in the animal facility in accordance with the procedures approved by Mackay Memorial Hospital Review Board (Taiwan, R.O. C.). All animal experimental procedures were conducted according to the ARVO Statement for the Use of Animals in Ophthalmic and Vision Research.
(§4) Dry eyes were induced by placing mice in a controlled environment chamber (CEC) for 14 days in accordance with procedures previously described by Barabino et al (IVOS (2005) 46(8), 2766-2771). Mice placed in the CEC were exposed to a condition, in which relative humidity (RH) was maintained at <25%, temperature at 20-22° C., and airflow at about 15 L/min, for 12 hours per day. Control mice were kept in a normal environment (RH>50%, no air flow, temperature of 20-22° C.) for the same duration.
(§5) A common artificial tear formulation, 1% carboxymethylcelllulose (CMC) dissolved in balanced salt solution (BSS) was used as the peptide vehicle. Peptide (50 μM) or 1% CMC vehicle was topically administered to eyes three times a day, for 4 days.
Corneal epithelial injury was determined by staining with topical fluorescein (100 mg/ml or 10%; FLUORESCITE™, Alcon Laboratories). For dosing, topical fluorescein (0.6 μL of 0.5% sodium fluorescein dissolved in 4.4 μL BSS per eye) was applied via a micro-pipette to the lateral canthus for 15 sec. Corneal fluorescein staining was examined with a slit-lamp biomicroscope under cobalt blue light and photographed with a digital camera. Data is presented as mean±SD. Dye staining of the cornea was scored in a blinded manner as follows: score 0 for no punctuate staining; score 1 when less than one third of the cornea was stained; score 2 when two thirds or less was stained; and score 3 when more than two thirds was stained.

Murine dry eye model [3] = test: Dry eye animal model, tear production by phenol red thread test; type: in vivo, C57BL/6 mice; conditions: treated for 4 days; P<0.01 versus vehicle treatment; FIG. 4
Protocol: as §3, §4, §5
Tear production was measured with phenol red-impregnated cotton threads (Zone-Quick; Oasis, Glendora, Calif.). The validity of this test in mice was performed as previously described (Dursun et al., Invest Ophthalmol Vis Sci. 2002; 43:632-8). The threads were held with jeweler forceps and placed in the lateral canthus for 60 seconds. The tear production expressed in millimeters of thread wet by the tear and turned red.

[4] = test system: Murine psoriasis vulgaris-like skin inflammation model; test: IMQ-induced psoriasis vulgaris-like skin inflammation model, H&E histology of back skin; type: in vivo, BALB/c mice; conditions: 25 μM with IMQ cream, 6 days; IMQ control 122±10.5; FIG. 8 panel B
Protocol: as §1
Back skin of the mouse was fixed overnight in 4% paraformaldehyde, dehydrated with graded ethanol series, and paraffinized. Fixed samples were deparaffinized in xylene and rehydrated in a graded series of ethanol. Tissues were sliced into 5-μm sections. General histology was performed using hematoxylin and eosin (H&E) (Merck, Rayway, N.J., USA).
as §2

| Substance | myeloma RPMI 8226 cell viability (MTT assay) (myeloma RPMI 8226 cell) | reduction in mean corneal fluorescein staining score compared with vehicle treated control mice (Murine dry eye model [2]) | tear volume (tear production) (Murine dry eye model [3]) | also measured |
| --- | --- | --- | --- | --- |
| NH2-(D-Asp)-Ile-Thr-Tyr-Val-Arg-Leu-Lys-Phe-COOH ([dD]ITYVRLKF; not fully specified (N-terminus, C-terminus); printed as NH2-(D-Asp)-Ile-Thr-Tyr-Val-Arg-Leu-Lys-Phe-COOH) [9-mer DD, 9-mer analogue, aspartate replaced by D-form aspartate] |  |  |  | hyperproliferation of keratinocytes, BrdU-positive cells in the epidermis (labeling index) [1]: 23.3±2.5% |
| NH2-Ala-Ile-Thr-Tyr-Val-Arg-Leu-Lys-Phe-COOH (AITYVRLKF; not fully specified (N-terminus, C-terminus); printed as NH2-Ala-Ile-Thr-Tyr-Val-Arg-Leu-Lys-Phe-COOH) [9-mer Da, 9-mer analogue, aspartate replaced by alanine] | sustain part of the inhibitory activity | about 3 fold | significantly increased |  |
| NH2-Asp-Ala-Thr-Tyr-Val-Arg-Leu-Lys-Phe-COOH (DATYVRLKF; not fully specified (N-terminus, C-terminus); printed as NH2-Asp-Ala-Thr-Tyr-Val-Arg-Leu-Lys-Phe-COOH) [9-mer Ia, 9-mer analogue, isoleucine replaced by alanine] | loss of the inhibitory activity |  |  |  |
| NH2-Asp-Ile-Ala-Tyr-Val-Arg-Leu-Lys-Phe-COOH (DIAYVRLKF; not fully specified (N-terminus, C-terminus); printed as NH2-Asp-Ile-Ala-Tyr-Val-Arg-Leu-Lys-Phe-COOH) [9-mer Ta, 9-mer analogue, threonine replaced by alanine] | loss of the inhibitory activity |  |  |  |
| NH2-Asp-Ile-Thr-Ala-Val-Arg-Leu-Lys-Phe-COOH (DITAVRLKF; not fully specified (N-terminus, C-terminus); printed as NH2-Asp-Ile-Thr-Ala-Val-Arg-Leu-Lys-Phe-COOH) [9-mer Ya, 9-mer analogue, tyrosine replaced by alanine] | loss of the inhibitory activity |  |  |  |
| NH2-Asp-Ile-Thr-Tyr-Ala-Arg-Leu-Lys-Phe-COOH (DITYARLKF; not fully specified (N-terminus, C-terminus); printed as NH2-Asp-Ile-Thr-Tyr-Ala-Arg-Leu-Lys-Phe-COOH) [9-mer Va, 9-mer analogue, valine replaced by alanine] | sustain part of the inhibitory activity | about 3 fold | significantly increased |  |
| NH2-Asp-Ile-Thr-Tyr-Val-Ala-Leu-Lys-Phe-COOH (DITYVALKF; not fully specified (N-terminus, C-terminus); printed as NH2-Asp-Ile-Thr-Tyr-Val-Ala-Leu-Lys-Phe-COOH) [9-mer Ra, 9-mer analogue, arginine replaced by alanine] | loss of the inhibitory activity |  |  |  |
| NH2-Asp-Ile-Thr-Tyr-Val-Arg-Ala-Lys-Phe-COOH (DITYVRAKF; not fully specified (N-terminus, C-terminus); printed as NH2-Asp-Ile-Thr-Tyr-Val-Arg-Ala-Lys-Phe-COOH) [9-mer La, 9-mer analogue, leucine replaced by alanine] | loss of the inhibitory activity |  |  |  |
| NH2-Asp-Ile-Thr-Tyr-Val-Arg-Leu-Ala-Phe-COOH (DITYVRLAF; not fully specified (N-terminus, C-terminus); printed as NH2-Asp-Ile-Thr-Tyr-Val-Arg-Leu-Ala-Phe-COOH) [9-mer Ka, 9-mer analogue, lysine replaced by alanine] | loss of the inhibitory activity |  |  |  |
| NH2-Asp-Ile-Thr-Tyr-Val-Arg-Leu-Lys-(D-Phe)-COOH (DITYVRLK[dF]; not fully specified (N-terminus, C-terminus); printed as NH2-Asp-Ile-Thr-Tyr-Val-Arg-Leu-Lys-(D-Phe)-COOH) [9-mer DF, 9-mer analogue, phenylalanine in D-form] |  | about 3 fold | significantly increased | acanthosis, quantified epidermal thickness [4]: 35.7±4.2 μm; hyperproliferation of keratinocytes, BrdU-positive cells in the epidermis (labeling index) [1]: 6.3±1.2% |
| NH2-Asp-Ile-Thr-Tyr-Val-Arg-Leu-Lys-Ala-COOH (DITYVRLKA; not fully specified (N-terminus, C-terminus); printed as NH2-Asp-Ile-Thr-Tyr-Val-Arg-Leu-Lys-Ala-COOH) [9-mer Fa, 9-mer analogue, phenylalanine replaced by alanine] | sustain part of the inhibitory activity | about 3 fold | significantly increased |  |
| NH2-Ile-Thr-Tyr-Val-Arg-Leu-Lys-Ala-COOH (ITYVRLKA; not fully specified (N-terminus, C-terminus); printed as NH2-Ile-Thr-Tyr-Val-Arg-Leu-Lys-Ala-COOH) [8-mer, control 8-mer peptide, aspartate residue of the 9-mer deleted] |  |  |  | corneal fluorescein stain (corneal damage), result in words (Murine dry eye model [2]; vs vehicle): no such effect |
| NH2-Lys-Ala-Phe-Asp-Ile-Thr-Tyr-Val-Arg-Leu-Lys-Phe-COOH (KAFDITYVRLKF; not fully specified (N-terminus, C-terminus); printed as NH2-Lys-Ala-Phe-Asp-Ile-Thr-Tyr-Val-Arg-Leu-Lys-Phe-COOH) [12-mer, 9-mer with additional 3 amino acid residues at the N-terminal] | successfully suppressed myeloma RPMI 8226 cell viability; also recorded: effective in suppressing myeloma cell viability; also recorded: more potent at lower dose | about 3 fold | significantly increased | acanthosis, quantified epidermal thickness [4]: 35.3±4.1 μm; hyperproliferation of keratinocytes, BrdU-positive cells in the epidermis (labeling index) [1]: 8.5±1.4% |
